We go through two compounds from US20210161783A1, “USE OF SPECIFIC BENZYLIDENE MALONATES FOR PROTECTING THE SKIN FROM CHEMICALLY INDUCED STRESS” (MERCK PATENT GMBH, priority 2018, published 2021).

Experiment [1] has as its system epidermis of living human skin explants. Briefly: Ex-vivo study on living human skin explants: histological investigation (Masson's trichrome staining). Type of experiment: cell-based. To be noted: for Epidermal morphological change compared with the untreated sample: explants treated with substance and the irritant, day 4, Masson staining. How it is done:
(§1) An ex-vivo study was carried out on skin explants from a person […] (P1922-AB54). The explants are kept in a functioning state in a BEM culture medium (explants medium from BIO-EC) at 37° C. in a moist atmosphere containing 5% of CO2. 4 explants are used in each case in an experimental series of a substance, the control or the reference.
(§2) Compounds A and B to be investigated are employed in 0.5% solution in ethanol. The influence of ethanol on the explant is investigated in parallel (compound C=ethanol). The reference employed is the gel from DECLÉOR with the article number 56300 (gel D; decléor gelée hydratante anti-pollution), which is known for its protection of the skin against chemicals, heavy metals and diesel particles. The control used is an untreated sample which only comes into contact with the culture medium.
(§3) The explants are treated once daily for 4 days (day 0=D0, day 1=D1, day 2=D2 and day 3=D3) with the solutions to be tested containing compound A and B as well as compound C and gel D (2 μl per explant corresponding to 2 mg/cm^2). On D3, the solutions to be tested and the reference are treated 4 hours before application of the irritant.
(§4) On D3, the explants are treated with the irritant containing the metals/heavy metals and diesel particles, as described above, where a paper disc with a diameter of 9 mm is soaked with 30 μl of the irritant. The irritant acts on the respective explant for 24 hours.
On day 4 (D4), three explants are collected for each of the compounds to be investigated. Each explant is divided, and one part is frozen at −80° C., the second half is fixed in a buffered formol solution (formaldehyde solution). The fourth explant remains frozen at −80° C.
The explants fixed for 24 hours are dehydrogenated and impregnated in paraffin. Areas with a thickness of 5 μm are then cut and investigated under the microscope (for example Leica DMLB or Olympus BX43). Corresponding images are produced, using the Masson staining method (Masson's trichrome staining, Goldner variant), a standard colouring method in histology. […]

For experiment [2], the system named is malonic dialdehyde (MDA) production in living human skin explants. Kind of experiment: Ex-vivo study on living human skin explants: MDA investigation of the culture medium (TBAR, spectrofluorimetry). Type of experiment: cell-based. The note with it: for MDA concentration in the culture medium of the explant treated with substance and the irritant (average) / MDA concentration in the culture medium of the explant treated without irritant, but with substance (average): 0.5% solution in ethanol (gel D as such), day 4; for MDA concentration in the culture medium of the explant treated with substance and the irritant (average): 2 mg/cm^2 once daily D0-D3, irritant (metals/heavy metals + 0.1% diesel particles PM2.5) 24 h, irritant only 143.6, untreated 98.3; for Average MDA concentration in the presence of substance attributable to the irritant alone: difference with irritant minus without irritant, irritant alone without substance 45.3; for Lower MDA production (change) versus irritant only: explants with substance and irritant, compared with explant treated only with irritant; for MDA concentration in the culture medium of the explant treated without irritant, but with substance (average): no irritant, once daily D0-D3, untreated 98.3; for Hindrance of MDA production standardised to the amount of MDA released only by the irritant: standardised to MDA attributable to irritant alone (45.3 nmol/l). As for the experimental part: as §1, §2, §3, §4
The culture medium of the treated explants is investigated for the compound MDA. MDA stands for malonic dialdehyde (propanedial) and is a known marker for oxidative stress, as described above.
The culture medium of each investigated explant is mixed with a salt medium (HBBS Medium Hank's Balanced Salts) and a TBAR solution and heated in a water bath at 80° C. for 15 minutes. The TBAR solution contains thiobarbituric acid, hydrochloric acid and trichloroacetic acid. Many substances which are unrelated to the lipoperoxidation react with the thiobarbituric acid, for example glucose. After cooling, malonic dialdehyde (MDA) is extracted with butanol in a liquid/liquid extraction, and the then investigated by spectrofluorimetry (excitation 515 nm, emission: 550 nm). The MDA concentration indicated below is quoted in nmol/l.
1. For interpretation of the results, it is taken into account that the culture medium of the untreated explants (without irritant and without compounds A, B, C and gel D) also contains MDA on day 4.
For analysis of the results, this amount of MDA present on average in the untreated explants is therefore subtracted from the values obtained for the explant samples in order to determine the influence of MDA production owing to the irritant.

The next experiment has as its system interleukin 8. To be noted: skin irritated by phorbol 12-myristate 13-acetate (PMA); cited from earlier work.

With `CCCCC(CC)COC(=O)C(=Cc1cc(OC)c(O)c(OC)c1)C(=O)OCC(CC)CCCC` (centres unmarked) [compound A, di(2-ethylhexyl) 3,5-dimethoxy-4-hydroxybenzylidenemalonate], the “Epidermal morphological change compared with the untreated sample” value in experiment [1] was “no epidermal change”. Besides, in experiment [2], the “MDA concentration in the culture medium of the explant treated with substance and the irritant (average)” value was 129.0 nmol/L; the “Average MDA concentration in the presence of substance attributable to the irritant alone” value turned out to be 34.3 nmol/L; the “Lower MDA production (change) versus irritant only” value is listed as 10%; the “MDA concentration in the culture medium of the explant treated without irritant, but with substance (average)” value worked out at 94.7 nmol/L. In experiment [2], the “Hindrance of MDA production standardised to the amount of MDA released only by the irritant” value was determined as 24%.

On to `COc1cc(C=C(C(=O)OC(C)C)C(=O)OC(C)C)ccc1O` [compound B, diisopropyl 3-methoxy-4-hydroxybenzylidenemalonate], for which, in the experiment on interleukin 8, the “Excretion of cytokines, in particular interleukin 8” value is recorded as “reduces the excretion of cytokines”. The “Epidermal morphological change compared with the untreated sample” value in experiment [1] was “an epidermal morphological change”. Also, the “Worsening of the condition of the epidermis (score of detectable changes)” value in experiment [1] (explants with substance and irritant, compared with untreated control and with compound A plus irritant) is reported as “about 55%”. Also, in experiment [2], the “MDA concentration in the culture medium of the explant treated with substance and the irritant (average)” value was found to be 135.5 nmol/L; the “Average MDA concentration in the presence of substance attributable to the irritant alone” value is 41.9 nmol/L; the “Lower MDA production (change) versus irritant only” value came to 6%; the “MDA concentration in the culture medium of the explant treated without irritant, but with substance (average)” value is 93.6 nmol/L. Further, the “Hindrance of MDA production standardised to the amount of MDA released only by the irritant” value in experiment [2] is recorded as 8%.
